Key:
Assay in all cases: Pemetrexed cytotoxicity test upon suppression of expression of MYT1
Assay type in all cases: cell-based
[1] = tested on: LU65; settings: LU65 (RB1 mutant)
Protocol: (§1) Thereafter, the plates were shaken to transfect each siRNA at a final concentration of 10 nM.
(§2) The −Log 2 value of fold change of IC50 and the maximum value of Bliss score, which are indexes of the combination effect, were calculated by comparing with the actually obtained cell survival curve, and described in Table 6 (see Non Patent Literature 9).

[2] = tested on: NCI-H661; settings: NCI-H661 (RB1 wild-type)
Protocol: as §1, §2

[3] = tested on: NCI-H1666; settings: NCI-H1666 (RB1 wild-type)
Protocol: as §1, §2

[4] = tested on: A549; settings: A549 (RB1 wild-type)
Protocol: as §1, §2

[5] = tested on: HOP-62; settings: HOP-62 (RB1 wild-type)
Protocol: as §1, §2

[6] = tested on: NCI-H292; settings: NCI-H292 (RB1 wild-type)
Protocol: as §1, §2

[7] = tested on: NCI-H596; settings: NCI-H596 (RB1 mutant)
Protocol: as §1, §2

[8] = tested on: PC-9; settings: PC-9 (RB1 wild-type)
Protocol: as §1, §2

[9] = tested on: NCI-H2110; settings: NCI-H2110 (RB1 mutant)
Protocol: as §1, §2

[10] = tested on: NCI-H460; settings: NCI-H460 (RB1 wild-type)
Protocol: as §1, §2

[11] = tested on: ABC-1; settings: ABC-1 (RB1 wild-type)
Protocol: as §1, §2

[12] = tested on: NCI-H1993; settings: NCI-H1993 (RB1 wild-type)
Protocol: as §1, §2

[13] = tested on: ChaGo-K-1; settings: ChaGo-K-1 (RB1 mutant)
Protocol: as §1, §2

[14] = tested on: NCI-H2122; settings: NCI-H2122 (RB1 wild-type)
Protocol: as §1, §2

[15] = tested on: EKVX; settings: EKVX (RB1 wild-type)
Protocol: as §1, §2

[16] = tested on: NCI-H358; settings: NCI-H358 (RB1 wild-type)
Protocol: as §1, §2

[17] = tested on: NCI-H441; settings: NCI-H441 (RB1 wild-type)
Protocol: as §1, §2

[18] = tested on: NCI-H322; settings: NCI-H322 (RB1 wild-type)
Protocol: as §1, §2

[19] = tested on: NCI-H1155; settings: NCI-H1155 (RB1 mutant)
Protocol: as §1, §2

[20] = pemetrexed + MYT1 siRNA #18 10 nM

## MYT1 #18: ON-TARGETplus individual siRNA, Dharmacon product code J-005026-18, nucleotide sequence SEQ ID No: 5 (CUUCCGAGCUGCGUUCUGU; chemistry not fully specified)
[1]; 10 nM, no pemetrexed
  Cytotoxic activity of siRNA alone, MYT1 #18: −0.297%
[1]; [20]
  Bliss score maximum value, MYT1 #18: 34.154
  HSA score maximum value, MYT1 #18: 33.984
[2]; 10 nM, no pemetrexed
  Cytotoxic activity of siRNA alone, MYT1 #18: 9.766%
[2]; [20]
  Bliss score maximum value, MYT1 #18: 11.699
  HSA score maximum value, MYT1 #18: 16.633
[3]; 10 nM, no pemetrexed
  Cytotoxic activity of siRNA alone, MYT1 #18: 1.456%
[3]; [20]
  Bliss score maximum value, MYT1 #18: 13.160
  HSA score maximum value, MYT1 #18: 13.970
[4]; 10 nM, no pemetrexed
  Cytotoxic activity of siRNA alone, MYT1 #18: 0.844%
[4]; [20]
  Bliss score maximum value, MYT1 #18: 9.581
  HSA score maximum value, MYT1 #18: 10.174
[5]; 10 nM, no pemetrexed
  Cytotoxic activity of siRNA alone, MYT1 #18: 10.654%
[5]; [20]
  Bliss score maximum value, MYT1 #18: 20.375
  HSA score maximum value, MYT1 #18: 25.849
[6]; 10 nM, no pemetrexed
  Cytotoxic activity of siRNA alone, MYT1 #18: 11.155%
[6]; [20]
  Bliss score maximum value, MYT1 #18: 6.895
  HSA score maximum value, MYT1 #18: 11.985
[7]; 10 nM, no pemetrexed
  Cytotoxic activity of siRNA alone, MYT1 #18: −2.058%
[7]; [20]
  Bliss score maximum value, MYT1 #18: 44.329
  HSA score maximum value, MYT1 #18: 42.707
[8]; 10 nM, no pemetrexed
  Cytotoxic activity of siRNA alone, MYT1 #18: −9.517%
[8]; [20]
  Bliss score maximum value, MYT1 #18: 18.833
  HSA score maximum value, MYT1 #18: 14.476
[9]; 10 nM, no pemetrexed
  Cytotoxic activity of siRNA alone, MYT1 #18: 9.660%
[9]; [20]
  Bliss score maximum value, MYT1 #18: 23.200
  HSA score maximum value, MYT1 #18: 28.531
[10]; 10 nM, no pemetrexed
  Cytotoxic activity of siRNA alone, MYT1 #18: −2.387%
[10]; [20]
  HSA score maximum value, MYT1 #18: 9.099
[11]; 10 nM, no pemetrexed
  Cytotoxic activity of siRNA alone, MYT1 #18: 7.811%
[11]; [20]
  Bliss score maximum value, MYT1 #18: 22.139
[12]; 10 nM, no pemetrexed
  Cytotoxic activity of siRNA alone, MYT1 #18: 10.347%
[12]; [20]
  Bliss score maximum value, MYT1 #18: 7.046
  HSA score maximum value, MYT1 #18: 14.207
[13]; 10 nM, no pemetrexed
  Cytotoxic activity of siRNA alone, MYT1 #18: −2.748%
[13]; [20]
  Bliss score maximum value, MYT1 #18: 34.464
  HSA score maximum value, MYT1 #18: 32.605
[14]; 10 nM, no pemetrexed
  Cytotoxic activity of siRNA alone, MYT1 #18: 5.899%
[14]; [20]
  Bliss score maximum value, MYT1 #18: 13.938
[15]; 10 nM, no pemetrexed
  Cytotoxic activity of siRNA alone, MYT1 #18: 1.053%
[15]; [20]
  Bliss score maximum value, MYT1 #18: 6.653
  HSA score maximum value, MYT1 #18: 7.060
[16]; 10 nM, no pemetrexed
  Cytotoxic activity of siRNA alone, MYT1 #18: 2.693%
[16]; [20]
  Bliss score maximum value, MYT1 #18: 13.168
  HSA score maximum value, MYT1 #18: 14.592
[17]; 10 nM, no pemetrexed
  Cytotoxic activity of siRNA alone, MYT1 #18: 22.238%
[17]; [20]
  Bliss score maximum value, MYT1 #18: 0.784
  HSA score maximum value, MYT1 #18: 17.896
[18]; 10 nM, no pemetrexed
  Cytotoxic activity of siRNA alone, MYT1 #18: −6.271%
[18]; [20]
  Bliss score maximum value, MYT1 #18: 23.827
  HSA score maximum value, MYT1 #18: 19.509
[19]; 10 nM, no pemetrexed
  Cytotoxic activity of siRNA alone, MYT1 #18: 30.960%
[19]; [20]
  Bliss score maximum value, MYT1 #18: 23.341
  HSA score maximum value, MYT1 #18: 32.708

Source: patent US20240293379A1, “THERAPEUTIC AGENT FOR CANCER OF PATIENT WITH DECREASE IN RB1 FUNCTION USING MYT1 INHIBITOR AND CHEMOTHERAPEUTIC AGENT IN COMBINATION, AND TREATMENT METHOD THEREOF” (Chugai Seiyaku Kabushiki Kaisha, priority 2022, published 2024)
